Results taken from patent US8507506B2, “Theophylline derivative inhibits osteoporosis” (Kaohsiung Medical University, priority 2011, dated 2013).

Tests used:
Assay type in all cases: cell-based
[1] = tested on: TRAP activity of RAW264.7 cells induced by RANKL; test: TRAP activity assay; settings: 10 ng/ml RANKL for 5 days, 10 μM
Procedure: 10^3 cells were plated per well in 96-well plates. […] When the reaction fluid became yellow, 0.1 M, 100 μl/well NaOH was added to terminate the reaction, and OD405 was examined in 37° C. b) 3 μl/well supernatant was examined by Bio-Red DC Protein Assay to detect the protein concentration.

[2] = tested on: RAW264.7 cells; test: MTT assay, proliferation induced by RANKL; settings: RAW264.7, 10 μM
Procedure: Cells were plated onto 96-well plates at a density of 10^3 cells per well. After 24 hours incubation, the different concentrations of the different drugs were administrated into the plates. […] Subsequently, the medium was removed, and 100 μl/well isopropanol was added to solved formazan. The plates were shaken for 15 minutes and stood for 15 minutes, and then the absorbance was measured at wavelength of 540 nm and 630 nm. The ratio of the absorbance of treated cells relative to that of the control cells was calculated and expressed as a percentage of cell survival.

[3] = tested on: RAW264.7 cells; test: BrdU assay, proliferation induced by RANKL; settings: RAW264.7, 10 μM
Procedure: The BrdU assay was followed the instructions of Cell Proliferation ELISA BrdU kit. 10^3 cells were plated per well in 96-well plates. […] After washing in wash buffer for three times, 100 μl/well Substrate reaction was added and incubated for 30 minutes at room temperature.

SMILES: Cn1c(=O)c2[nH]cnc2n(C)c1=O [theophylline]
- TRAP activity induced by RANKL [1]: have no obviously inhibiting effect on TRAP activity induced by RANKL
- cell proliferation induced by RANKL (MTT assay) [2]: have no previous inhibiting effect on cell proliferation induced by RANKL
- cell proliferation induced by RANKL (BrdU assay) [3]: have no previous inhibiting effect on cell proliferation induced by RANKL

SMILES: CCCc1nn(C)c2c(=O)[nH]c(-c3cc(S(=O)(=O)N4CCN(C)CC4)ccc3OCC)nc12 [sildenafil]
- TRAP activity induced by RANKL [1]: have no obviously inhibiting effect on TRAP activity induced by RANKL
